Experiments:
[1] = molecular target: T1, rat metabotropic glutamate receptor 5 (mGlu5) (Rattus norvegicus, UniProt P31424); experiment: Single-cell calcium imaging (Fura-2) of quisqualate-evoked calcium oscillations, with photoisomerization by 390/490 nm light; format: cell-based
T1 construct: expressed in transfected cells; host or cells: HEK tsA201 cells
Experimental: Cell Culture and Transient Transfection: Human embryonic kidney (HEK) tsA201 cells were maintained at 37 °C and humidified atmosphere with 5% CO2; cells were grown in Dulbecco's Modified Eagle's Medium/Nutrient Mixture F-12 Ham (DMEM/F12, 1:1) medium, supplemented with 10% Fetal Bovine Serum (FBS) and antibiotics (1% Penicillin/Streptomycin). Once at confluence, culture flasks were washed twice with PBS and harvested with 300 µl Accutase. Expression of rat mGlu5a was induced by transient transfection of the cDNA-containing plasmid with X-tremeGENE 9 DNA Transfection Reagent. For transfection, cells were seeded at a concentration of 10^6 cells per well on 6-multiwell plates with a final volume of 2ml, and immediately transfected following manufacturer's instructions (100 µl mixture of 3:1 (µl:µg) of X-tremeGENE 9 DNA TR:mGlu5a plasmid in serum-free medium, 20 minutes incubation). About 24h after transfection, HEK tsA201 cells transiently overexpressing mGlu5a were seeded onto 15 mm glass coverslips pre-treated with Poly-L-Lysine to allow cell adhesion. Seeding concentration was maintained between 2/4·10^5 cells to get preconfluent cultures at the time of experiment. Transfected cells were used for single-cell calcium imaging experiments between 48 and 72 hours after transfection.
Single-cell Calcium Imaging: At the time of experiments, glass coverslips were mounted onto the recording chamber, and cells were loaded with the high affinity, ratiometric, intracellular calcium indicator Fura-2 AM; the dye was incubated during 30 minutes at 37°C and 5% CO2, at a final concentration of 10 µM in Ca^2+-free extracellular solution (ES, -Ca^2+). We used a ratiometric calcium sensor in order to avoid bleaching artefacts. Cells were then carefully rinsed with fresh ES, three to four times, before the recording chamber was placed on an inverted fully-motorised digital microscope (iMic 2000, Till Photonics, Gräfelfing, Germany). Images were acquired at room temperature with a UV Apochromat 40x oil objective lens (Olympus, Tokio, Japan). Fura-2 AM was excited consecutively for 10 ms at two different wavelengths (340 and 380 nm) as indicated by the manufacturer (Life Technologies, Paisley, UK) by using a Polychrome V light source (Till Photonics) and a 505 nm dichroic beamsplitter (Chroma Technology, Below Falls, VT, USA); emission at 510 nm was filtered by a D535/40nm emission filter (Chroma Technology) and finally collected by a cooled CCD camera (Interline Transfer IMAGO QE, Till Photonics). The fluorescence measurements (excitation + emission recording) were carried out every 2 seconds, and each measurement takes about 10-50 ms. The 340 and 380 nm images were stored by the TILLvisION imaging software (Till Photonics); the ratio of the emission when the sample was excited at 340 nm and the emission when it was excited at 380 nm was recorded and its mean value was calculated for each cell using the same software. Higher ratios correspond to higher intracellular calcium concentrations.
Agonists and allosteric modulators addition was obtained by carefully pipetting an initial 1:30 dilution of the compound directly into the accessory pool of the recording chamber, obtaining a final dilution of 1:1000 (total DMSO concentration was always lower than 1%). Activation of the agonist was induced in HEK tsA201 mGlu5a transfected cells with the glutamate analogue Quisqualic acid (3 µM). Only evoked, sustained intracellular calcium oscillations were taken into account as consistent cell responses to the application of the agonist; different responses (such as single-peak, peak-and-plateau, etc.), as well as spontaneously oscillating cells, were discarded as unsuitable for calculating the oscillatory frequency.
Solutions and Reagents: The extracellular solution (ES) used for single-cell calcium imaging contained: 140 mM NaCl, 5.4 mM KCI, 1 mM MgCl2, 10 mM HEPES, 10 mM glucose and 2 mM CaCl2 adjusted to pH 7.4 with NaOH. […]

rat mGlu5 receptor = molecular target: T2, rat mGlu5 receptor (Rattus norvegicus, UniProt P31424); experiment: IP1 accumulation (IP-One HTRF) in transiently transfected HEK293 cells; format: cell-based; conditions: IP1 production, HEK293 cells with rat mGlu5 and EAAC1, 30 min incubation, 100 nM Quisqualate
T2 construct: expressed in transfected cells; host or cells: HEK293 cells (EAAC1 glutamate transporter cotransfected)
Experimental: Pharmacological experiments on mGlu receptors were performed in HEK293 cells cultured in Dulbecco's modified Eagle's medium (GIBCO-BRL Life Technologies Inc., Cergy Pontoise, France) supplemented with 10% fetal calf serum (FCS, GIBCO-BRL Life Technologies., Cergy Pontoise, France). The compounds were tested on a rat mGlu5 receptor, which was transiently transfected in HEK293 cells by electroporation as described elsewhere [Neuropharmacology 1998, 37, 1043-1051]. Additionally, a plasmid encoding the high-affinity glutamate transporter EAAC1 was cotransfected to prevent the influence of the glutamate released by the cells in the medium. Receptor activity is monitored by measurement of IP1 production using the kit IP-One HTRF® Assay from Cisbio Bioassays (France). For IP1 accumulation measurements, cells were seeded after transfection in polyornithine-coated, black-walled 96-well Polystyrene Cell Culture Microplates (Greiner Bio-One SAS, France) and cultured for 24 h in glutamate/glutamine-free medium (GIBCO-BRL Life Technologies Inc., Cergy Pontoise, France) and antibiotics (penicillin and streptomycin, 100 UmL_1 final, GIBCO-BRL Life Technologies). Media was removed and cells were incubated for 30min in a solution containing the drugs at the tested concentrations. The IP-One stimulation buffer, provided with the kit IP-One (Cisbio Bioassays, France), contains lithium chloride (LiCl) at 50mM that inhibits the degradation of IP1 to Myo-inositol, which is then accumulated in the cell. HTRF reagents, monoclonal antibody specific to IP1 labelled with terbium cryptate and IP1 coupled with the dye d2, diluted in a Lysis buffer were added. After 1 hour of incubation, time resolved fluorescence at 620nm and 665nm was measured with RUBYstar (BMG Labtech, Germany). The specific signal, which results from the energy transfer between […], is proportional to the ratio between the fluorescence emitted at 620 nm and 665 nm, and consequently to the concentration of IP1 in the lysate. All points were determined in triplicate. The dose-response curves were fitted using GraphPad Prism software and the following equation: y= [(ymax-ymin)/(1+10^(LogIC50-x))]+ymin, in which IC50 is the concentration of the compound necessary to obtain the half-maximal effect. (10 µM ≤ IC50 < 50 µM +; 2 µM ≤ IC50 < 10 µM ++; 500 nM ≤ IC50 < 2 µM +++; 100 nM ≤ IC50<500 nM ++++; IC50< 100 nM +++++) Table 14.

[2] = 3 µM quisqualate, HEK tsA201 cells

T1 sequence (P31424 21-1171 isoform P31424-2 limits assumed): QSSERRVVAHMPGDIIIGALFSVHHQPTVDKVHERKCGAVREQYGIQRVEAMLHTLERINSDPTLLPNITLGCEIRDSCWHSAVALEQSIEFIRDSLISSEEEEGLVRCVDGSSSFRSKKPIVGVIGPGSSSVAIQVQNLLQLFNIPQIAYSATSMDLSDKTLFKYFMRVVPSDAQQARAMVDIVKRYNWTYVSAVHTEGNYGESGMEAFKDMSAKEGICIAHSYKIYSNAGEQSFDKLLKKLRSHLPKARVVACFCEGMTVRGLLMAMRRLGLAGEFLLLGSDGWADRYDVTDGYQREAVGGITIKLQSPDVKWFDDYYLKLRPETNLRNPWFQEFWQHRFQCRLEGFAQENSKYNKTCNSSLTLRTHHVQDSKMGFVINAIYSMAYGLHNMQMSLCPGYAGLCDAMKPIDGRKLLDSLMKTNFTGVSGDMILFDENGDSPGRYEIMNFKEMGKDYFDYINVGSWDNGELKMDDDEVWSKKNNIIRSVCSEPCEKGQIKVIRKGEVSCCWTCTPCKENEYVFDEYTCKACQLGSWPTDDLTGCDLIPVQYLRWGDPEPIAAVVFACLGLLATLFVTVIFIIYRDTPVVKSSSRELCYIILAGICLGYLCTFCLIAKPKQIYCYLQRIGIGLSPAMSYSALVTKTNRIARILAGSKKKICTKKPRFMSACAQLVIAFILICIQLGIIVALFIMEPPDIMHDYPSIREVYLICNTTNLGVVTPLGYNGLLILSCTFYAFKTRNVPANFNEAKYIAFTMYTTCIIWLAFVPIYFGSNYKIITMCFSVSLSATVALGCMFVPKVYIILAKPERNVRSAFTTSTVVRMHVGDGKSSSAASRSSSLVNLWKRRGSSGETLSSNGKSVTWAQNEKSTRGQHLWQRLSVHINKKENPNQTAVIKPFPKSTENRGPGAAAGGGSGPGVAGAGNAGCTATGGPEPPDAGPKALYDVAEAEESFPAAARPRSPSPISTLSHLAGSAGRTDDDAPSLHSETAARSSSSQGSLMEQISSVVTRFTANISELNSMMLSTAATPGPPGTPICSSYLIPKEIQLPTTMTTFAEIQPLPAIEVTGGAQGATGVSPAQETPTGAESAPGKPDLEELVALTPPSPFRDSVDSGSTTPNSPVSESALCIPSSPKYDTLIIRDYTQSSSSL
T2 sequence (P31424 21-1203): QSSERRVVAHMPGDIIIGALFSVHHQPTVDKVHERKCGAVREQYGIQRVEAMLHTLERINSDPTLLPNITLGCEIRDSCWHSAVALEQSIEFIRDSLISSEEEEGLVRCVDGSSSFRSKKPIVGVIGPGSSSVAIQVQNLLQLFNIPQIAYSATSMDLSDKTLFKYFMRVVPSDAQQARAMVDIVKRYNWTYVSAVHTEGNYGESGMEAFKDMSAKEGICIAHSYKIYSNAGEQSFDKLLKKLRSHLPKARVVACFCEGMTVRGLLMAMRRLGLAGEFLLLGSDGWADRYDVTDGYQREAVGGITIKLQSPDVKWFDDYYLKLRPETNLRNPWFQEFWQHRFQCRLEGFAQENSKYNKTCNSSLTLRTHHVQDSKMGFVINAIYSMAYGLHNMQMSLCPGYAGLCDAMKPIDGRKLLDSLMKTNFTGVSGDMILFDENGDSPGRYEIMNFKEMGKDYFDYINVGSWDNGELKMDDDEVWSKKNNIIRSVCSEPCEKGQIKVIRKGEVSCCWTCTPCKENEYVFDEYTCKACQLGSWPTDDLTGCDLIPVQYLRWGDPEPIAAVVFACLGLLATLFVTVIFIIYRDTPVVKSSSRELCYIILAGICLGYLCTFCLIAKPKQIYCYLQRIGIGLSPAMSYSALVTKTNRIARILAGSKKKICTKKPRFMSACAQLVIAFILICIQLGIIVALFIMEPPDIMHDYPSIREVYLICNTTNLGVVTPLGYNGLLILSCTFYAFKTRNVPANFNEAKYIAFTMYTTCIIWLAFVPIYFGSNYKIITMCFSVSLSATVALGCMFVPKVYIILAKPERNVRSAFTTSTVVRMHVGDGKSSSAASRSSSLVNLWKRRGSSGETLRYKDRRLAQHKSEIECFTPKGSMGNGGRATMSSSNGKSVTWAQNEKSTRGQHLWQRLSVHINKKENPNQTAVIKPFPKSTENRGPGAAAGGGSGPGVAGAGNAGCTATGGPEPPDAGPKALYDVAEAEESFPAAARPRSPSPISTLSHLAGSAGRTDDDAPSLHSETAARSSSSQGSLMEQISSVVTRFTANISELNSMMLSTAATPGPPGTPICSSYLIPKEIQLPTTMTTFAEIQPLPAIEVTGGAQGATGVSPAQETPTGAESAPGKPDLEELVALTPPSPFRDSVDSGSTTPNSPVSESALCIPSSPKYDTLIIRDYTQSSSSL

Compound	IC50 (rat mGlu5 receptor) [nM]	also measured
COc1cc(/C=C/c2ccccn2)ccc1NC(=O)c1ccccc1Cl [(E)-47, (E)-2-Chloro-N-(2-methoxy-4-(2-(pyridin-2-yl)vinyl)phenyl)benzamide, reference compound]	–	effect on mGlu5 response (calcium oscillations) [1, 2]: blocked the oscillatory responses of quisqualate
COc1cc(/N=N\c2ccccn2)ccc1NC(=O)c1ccccc1Cl [(Z)-1c, (Z)-2-chloro-N-(2-methoxy-4-(pyridin-2-yldiazenyl)phenyl)benzamide]	–	effect on mGlu5 response (calcium oscillations) [1, 2]: increases this response
COc1cc(/C=C\c2ccccn2)ccc1NC(=O)c1ccccc1Cl [(Z)-47, (Z)-2-Chloro-N-(2-methoxy-4-(2-(pyridin-2-yl)vinyl)phenyl)benzamide, reference compound]	–	effect on mGlu5 response (calcium oscillations) [1, 2]: inhibits mGlu5 activation
COc1cc(/N=N/c2ccccn2)ccc1NC(=O)c1ccc(C(=O)c2ccccc2)cc1 [Compound 1a, (E)-4-Benzoyl-N-(2-methoxy-4-(pyridin-2-yldiazenyl)phenyl)benzamide]	500 to 2000	–
COc1cc(/N=N/c2ccccn2)ccc1NC(=O)c1ccc(Cl)cc1Cl [Compound 1b, (E)-2,4-Dichloro-N-(2-methoxy-4-(pyridin-2-yldiazenyl)phenyl)benzamide]	500 to 2000	–
COc1cc(/N=N/c2ccccn2)ccc1NC(=O)c1ccccc1Cl [Compound 1c, (E)-2-Chloro-N-(2-methoxy-4-(pyridin-2-yldiazenyl)phenyl)benzamide]	< 100	oscillatory frequency at 390 nm ([1]; 100 nM compound, 390 nm illumination, compared with quisqualate alone): significantly higher than with quisqualate alone; oscillatory responses to 3 µM quisqualate ([1]; 100 nM compound, in the dark or under 490 nm light): completely blocked; effect on mGlu5 response (calcium oscillations) [1, 2]: inhibit mGlu5 response; light dependence of the activity on mGlu5 ([1]; 3 µM quisqualate, UV (380/390 nm) and visible (500/490 nm) light): could be reversibly switched on and off at 390 nm and 490 nm; IC50 ([1]; in the dark or under 490 nm light, 3 µM quisqualate, HEK tsA201 cells, read-out: IC50 (inhibitory profile on calcium oscillations)): 30 nM
COc1cc(/N=N/c2ccccn2)ccc1NC(=O)c1ccccn1 [Compound 1d, (E)-N-(2-Methoxy-4-(pyridin-2-yldiazenyl)phenyl)picolinamide]	100 to 500	–
COc1cc(/N=N/c2ccccn2)ccc1NC(=O)c1cccnc1 [Compound 1e, (E)-N-(2-Methoxy-4-(pyridin-2-yldiazenyl)phenyl)nicotinamide]	100 to 500	–
COc1cc(/N=N/c2ccccn2)ccc1NC(=O)c1ccncc1 [Compound 1f, (E)-N-(2-Methoxy-4-(pyridin-2-yldiazenyl)phenyl)isonicotinamide]	500 to 2000	–
N#Cc1cc(/N=N/c2ccccn2)ccc1NC(=O)c1ccccn1 [Compound 1g, (E)-N-(2-Cyano-4-(pyridin-2-yldiazenyl)phenyl)picolinamide]	2000 to 10000	–
O=C(Nc1ccc(/N=N/c2ccccn2)cc1)c1ccccn1 [Compound 1h, (E)-N-(4-(Pyridin-2-yldiazenyl)phenyl)picolinamide]	2000 to 10000	–
COc1cc(NC(=O)c2ccccn2)ccc1/N=N/c1ccccn1 [Compound 1i, (E)-N-(3-Methoxy-4-(pyridin-2-yldiazenyl)phenyl)picolinamide]	10000 to 50000	–
COc1cc(/N=N/c2ccccn2)ccc1N1C(=O)c2ccccc2C1=O [Compound 1j, (E)-2-(2-Methoxy-4-(pyridin-2-yldiazenyl)phenyl)isoindoline-1,3-dione]	2000 to 10000	–
COc1cc(/N=N/c2ccccn2)ccc1N(C(=O)c1ccccc1)C(=O)c1ccccc1 [Compound 1k, (E)-N-Benzoyl-N-(2-methoxy-4-(pyridin-2-yldiazenyl)phenyl)benzamide]	500 to 2000	–
COc1cc(/N=N/c2ccccn2)ccc1NC(=O)c1ccccc1 [Compound 1l, (E)-N-(2-Methoxy-4-(pyridin-2-yldiazenyl)phenyl)benzamide]	100 to 500	–
COc1cc(/N=N/c2ccccn2)ccc1NC(=O)C(C)C [Compound 1m, (E)-N-(2-Methoxy-4-(pyridin-2-yldiazenyl)phenyl)isobutyramide]	< 100	–
COc1cc(/N=N/c2ccccn2)ccc1NC(=O)C1CCCCC1 [Compound 1n, (E)-N-(2-Methoxy-4-(pyridin-2-yldiazenyl)phenyl)cyclohexanecarboxamide]	< 100	–
COc1cc(/N=N/c2ccccn2)ccc1NC(=O)Nc1ccccc1F [Compound 1o, (E)-1-(2-Fluorophenyl)-3-(2-methoxy-4-(pyridin-2-yldiazenyl)phenyl)urea]	500 to 2000	–
COc1cc(/N=N/c2ccccn2)ccc1NC(=O)c1ccccc1F [Compound 1p, (E)-2-Fluoro-N-(2-methoxy-4-(pyridin-2-yldiazenyl)phenyl)benzamide]	100 to 500	–
COc1cc(/N=N/c2ccccn2)ccc1NC(=O)c1cscn1 [Compound 1r, (E)-N-(2-Methoxy-4-(pyridin-2-yldiazenyl)phenyl)thiazole-4-carboxamide]	100 to 500	–
O=C(Nc1ccccn1)c1ccc(/N=N/c2ccccn2)cc1 [Compound 1s, (E)-N-(Pyridin-2-yl)-4-(pyridin-2-yldiazenyl)benzamide]	10000 to 50000	–
O=C(Nc1cccc(/N=N/c2ccccn2)c1)c1ccccn1 [Compound 1t, (E)-N-(3-(pyridin-2-yldiazenyl)phenyl)picolinamide]	10000 to 50000	–

Reference: patent publication EP2853565A1, “Glutamate receptor photomodulators” (Consejo Superior De Investigaciones Científicas, priority 2013, dated 2015)
